Measured values as given in paper PMC7481482, “Development of Anthraquinone Derivatives as Ectonucleoside Triphosphate Diphosphohydrolase (NTPDase) Inhibitors With Selectivity for NTPDase2 and NTPDase3” (Frontiers in Pharmacology, 2020).

Tests used:
human NTPDase3 = target: T1, human NTPDase3 (Homo sapiens, UniProt O75355); experiment: Malachite green assay, human NTPDase3; assay type: biochemical; conditions: 100 µM ATP, COS-7 membrane preparation; for inhibition at 2 µM: 2 μM compound, read-out: % inhibition at 2 μM concentration, NTPDase3
T1 construct: expressed in transfected cells; host or cells: COS-7 cells (membrane preparation)
T1 sequence (O75355 1-529): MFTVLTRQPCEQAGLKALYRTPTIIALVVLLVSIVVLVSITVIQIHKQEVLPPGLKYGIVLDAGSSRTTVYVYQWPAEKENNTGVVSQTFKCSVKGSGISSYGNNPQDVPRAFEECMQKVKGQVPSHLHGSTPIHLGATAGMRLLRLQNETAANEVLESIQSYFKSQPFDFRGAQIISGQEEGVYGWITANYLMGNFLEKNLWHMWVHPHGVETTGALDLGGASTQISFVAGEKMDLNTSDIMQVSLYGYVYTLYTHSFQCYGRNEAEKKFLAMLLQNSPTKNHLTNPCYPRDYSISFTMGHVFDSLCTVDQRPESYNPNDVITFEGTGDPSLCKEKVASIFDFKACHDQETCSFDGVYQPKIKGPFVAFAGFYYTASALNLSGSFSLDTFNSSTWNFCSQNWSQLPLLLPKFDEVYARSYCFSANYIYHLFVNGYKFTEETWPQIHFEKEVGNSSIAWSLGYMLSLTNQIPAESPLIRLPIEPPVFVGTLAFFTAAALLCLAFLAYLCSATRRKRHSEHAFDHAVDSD
Description: (§1) Membrane preparations expressing human NTPDase1, -2, -3, or -8, respectively, were obtained as previously described ([Sévigny et al., 1997]; [Cogan et al., 1999]; [Kukulski et al., 2005]; [Lecka et al., 2013]; [Lee et al., 2018]). Enzyme inhibition assays were performed using the malachite green assay in analogy to published procedures with some modifications ([Dou et al., 2018]). The reaction buffer contained 10 mM HEPES, 2 mM CaCl2, and 1 mM MgCl2 (pH 7.4) in a final volume of 50 μL in transparent 96-well half-area plates. The compounds were initially tested at a final concentration of 2 µM using a COS-7-cell membrane preparation expressing the appropriate NTPDase isoenzyme (protein amount: 143 ng for NTPDase1, 175 ng for NTPDase2, 152 ng for NTPDase3, and 175 ng for NTPDase8). Preincubated of the enzyme preparations was perfomred at 37°C in the presence or absence of test compounds with gentle shaking (Eppendorf Thermomixer comfort at 500 rpm) for 5 min. […] ([Kukulski et al., 2005]). After 15 min of incubation at 37°C with gentle shaking, the reaction was stopped by the addition of the detection reagents (20 µL malachite green solution, 0.6 mM, and 30 µL of ammonium molybdate solution, 20 mM, in 1.5 M sulfuric acid). The released inorganic phosphate was quantified after 20 min of gentle shaking at 25°C by measuring the absorption of the malachite green-phosphomolybdate complex at 600 nm using a BMG PheraStar FS plate reader (BMG Labtech GmbH, Ortenberg, Germany). The corrected absorption was calculated by subtracting the absorption of the negative control samples, which were incubated with previously denatured enzyme (90°C, 15 min). Full concentration-inhibition curves were determined with inhibitor concentrations ranging from 0.03 to 30 µM in the presence of 2% DMSO. Inhibition-type experiments were performed with 25, 50, 100, 150 and 200 µM ATP as substrate for NTPDase2 in the presence of inhibitor 20 (0, 0.25, 0.5, and 1 µM) and 25, 50, 100 and 150 µM ATP substrate for NTPDase3 and compound 42 (0.25, 0.5, and 1 µM). For all of the presented data, at least three independent experiments were performed, and IC50 values were calculated by GraphPad Prism 8 software.
(§2) Inhibition of human NTPDases was performed using the malachite green assay, which was established on a robotic system (Z’ factors > 0.70) ([Baykov et al., 1988]; [Fiene et al., 2015]). The malachite green assay enables the detection of the phosphate produced by the enzymatic hydrolysis of nucleotides. A fixed substrate concentration of 50 µM ATP for NTPDase1 and 100 µM for NTPDase2, -3, and -8 was employed. Test compounds were initially screened at a concentration of 2 μM. […] A total of 48 synthesized anthraquinone derivatives including 14 new compounds not previously described in the literature were evaluated for their inhibitory activity at human NTPDase1, -2, -3, and -8 (for results see Table 1).

human NTPDase1 = target: T2, human NTPDase1 (Homo sapiens, UniProt P49961); experiment: Malachite green assay, human NTPDase1; assay type: biochemical; conditions: 2 μM compound; 50 µM ATP; COS-7 membrane preparation; read-out: % inhibition at 2 μM concentration, NTPDase1
T2 construct: expressed in transfected cells; host or cells: COS-7 cells (membrane preparation)
T2 sequence (P49961 1-510): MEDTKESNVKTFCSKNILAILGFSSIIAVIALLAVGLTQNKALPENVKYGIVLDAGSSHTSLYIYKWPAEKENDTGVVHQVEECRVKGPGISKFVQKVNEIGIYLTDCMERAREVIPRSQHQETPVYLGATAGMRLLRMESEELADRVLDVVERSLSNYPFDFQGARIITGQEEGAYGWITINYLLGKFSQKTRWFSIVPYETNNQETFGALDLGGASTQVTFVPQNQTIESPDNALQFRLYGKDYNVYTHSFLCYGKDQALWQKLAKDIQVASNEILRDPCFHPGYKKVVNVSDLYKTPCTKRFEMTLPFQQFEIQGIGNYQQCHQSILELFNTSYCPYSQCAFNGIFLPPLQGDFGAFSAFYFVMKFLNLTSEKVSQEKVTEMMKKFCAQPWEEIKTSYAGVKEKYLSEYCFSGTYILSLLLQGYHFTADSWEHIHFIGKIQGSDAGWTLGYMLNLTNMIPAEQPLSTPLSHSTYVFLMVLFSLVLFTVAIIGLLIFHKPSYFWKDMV
Description: as §1, §2

human NTPDase2 = target: T3, human NTPDase2 (Homo sapiens, UniProt Q9Y5L3); experiment: Malachite green assay, human NTPDase2; assay type: biochemical; conditions: 100 µM ATP, COS-7 membrane preparation; for IC50: read-out: IC50 ± SEM, NTPDase2; for inhibition at 2 µM: 2 μM compound, read-out: % inhibition at 2 μM concentration, NTPDase2
T3 construct: expressed in transfected cells; host or cells: COS-7 cells (membrane preparation)
T3 sequence (Q9Y5L3 1-495): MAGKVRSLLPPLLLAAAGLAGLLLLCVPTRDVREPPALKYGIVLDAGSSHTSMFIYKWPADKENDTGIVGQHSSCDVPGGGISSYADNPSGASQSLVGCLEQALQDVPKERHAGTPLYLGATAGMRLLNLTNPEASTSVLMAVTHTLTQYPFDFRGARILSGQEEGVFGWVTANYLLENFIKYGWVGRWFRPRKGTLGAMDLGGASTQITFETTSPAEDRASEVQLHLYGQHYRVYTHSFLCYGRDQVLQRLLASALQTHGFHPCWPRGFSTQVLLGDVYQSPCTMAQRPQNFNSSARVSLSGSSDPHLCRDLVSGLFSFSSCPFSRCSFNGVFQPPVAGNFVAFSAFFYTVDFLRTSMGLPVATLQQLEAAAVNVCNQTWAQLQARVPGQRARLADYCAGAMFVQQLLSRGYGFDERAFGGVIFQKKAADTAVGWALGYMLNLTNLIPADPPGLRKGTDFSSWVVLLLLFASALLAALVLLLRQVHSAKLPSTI
Description: as §1, §2

human NTPDase8 = target: T4, human NTPDase8 (Homo sapiens, UniProt Q5MY95); experiment: Malachite green assay, human NTPDase8; assay type: biochemical; conditions: 2 μM compound; 100 µM ATP; COS-7 membrane preparation; read-out: % inhibition at 2 μM concentration, NTPDase8
T4 construct: expressed in transfected cells; host or cells: COS-7 cells (membrane preparation)
T4 sequence (Q5MY95 1-495): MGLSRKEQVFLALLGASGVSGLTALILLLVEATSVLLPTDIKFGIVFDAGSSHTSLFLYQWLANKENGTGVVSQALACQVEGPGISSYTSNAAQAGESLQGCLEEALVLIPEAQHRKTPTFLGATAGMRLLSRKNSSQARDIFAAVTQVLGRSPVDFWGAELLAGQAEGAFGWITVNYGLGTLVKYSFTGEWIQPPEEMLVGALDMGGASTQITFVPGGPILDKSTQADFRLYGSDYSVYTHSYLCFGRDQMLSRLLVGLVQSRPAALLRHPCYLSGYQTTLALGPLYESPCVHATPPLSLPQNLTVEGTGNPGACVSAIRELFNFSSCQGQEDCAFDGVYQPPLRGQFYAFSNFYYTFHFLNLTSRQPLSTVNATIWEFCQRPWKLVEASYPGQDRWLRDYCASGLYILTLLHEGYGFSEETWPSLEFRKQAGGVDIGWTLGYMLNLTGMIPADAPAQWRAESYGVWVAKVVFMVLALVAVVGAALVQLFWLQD
Description: as §1, §2

SMILES	inhibition at 2 µM (human NTPDase3) [%]	inhibition at 2 µM (human NTPDase1) [%]	melting point [°C]	IC50 (human NTPDase2) [nM]	inhibition at 2 µM (human NTPDase8) [%]	inhibition at 2 µM (human NTPDase2) [%]	IC50 (human NTPDase3; read-out: IC50 ± SEM, NTPDase3) [nM]
COc1ccc(Sc2ccc(Nc3cc(S(=O)(=O)[O-])c(N)c4c3C(=O)c3ccccc3C4=O)cc2)cc1.[Na+] [Compound 47, Sodium 1-amino-4-[4-(4-methoxyphenylthio)phenylamino]-9,10-dioxo-9,10-dihydroanthracene-2-sulfonate]	16	34	> 300	951 ± 225	4		
CCc1cccc(Nc2cc(Br)c(N)c3c2C(=O)c2ccccc2C3=O)c1 [Compound 53, 1-Amino-2-bromo-4-(3-ethylphenylamino)anthracene-9,10-dione]	-2	-4	229 to 230		-4	5	
Nc1c(S(=O)(=O)[O-])cc(Nc2cccc(I)c2)c2c1C(=O)c1ccccc1C2=O.[Na+] [Compound 23, Sodium 1-amino-4-(3-iodophenylamino)-9,10-dioxo-9,10-dihydroanthracene-2-sulfonate]	2	0	> 300		4	21	
Nc1c(S(=O)(=O)[O-])cc(Nc2ccc(O)cc2F)c2c1C(=O)c1ccccc1C2=O.[Na+] [Compound 37, Sodium 1-amino-4-(2-fluoro-4-hydroxyphenylamino)-9,10-dioxo-9,10-dihydroanthracene-2-sulfonate]	-12	-8	> 300		-6	5	
Nc1c(S(=O)(=O)[O-])cc(Nc2cccc(Cl)c2Cl)c2c1C(=O)c1ccccc1C2=O.[Na+] [Compound 34, Sodium 1-amino-4-(2,3-dichlorophenylamino)-9,10-dioxo-9,10-dihydroanthracene-2-sulfonate]	-2	1	> 300		7	16	
Nc1c(S(=O)(=O)[O-])cc(Nc2cccc(CO)c2)c2c1C(=O)c1ccccc1C2=O.[Na+] [Compound 28, Sodium 1-amino-4-(3-(hydroxymethyl)phenylamino)-9,10-dioxo-9,10-dihydroanthracene-2-sulfonate]	-9	-2	> 300		1	7	
Nc1c(S(=O)(=O)[O-])cc(Nc2ccc(Sc3ccc(Cl)cc3)cc2)c2c1C(=O)c1ccccc1C2=O.[Na+] [Compound 45, Sodium 1-amino-4-[4-(4-chlorophenylthio)phenylamino]-9,10-dioxo-9,10-dihydroanthracene-2-sulfonate]	42	52	> 300	1080 ± 80	21		
Nc1c(S(=O)(=O)[O-])cc(Nc2cccc(CC(=O)O)c2)c2c1C(=O)c1ccccc1C2=O.[Na+] [Compound 30, Sodium 1-amino-4-(3-(carboxymethyl)phenylamino)-9,10-dioxo-9,10-dihydroanthracene-2-sulfonate]		-6	> 300		-11	7	1520 ± 280
Nc1c(S(=O)(=O)[O-])cc(Nc2ccc(CO)cc2)c2c1C(=O)c1ccccc1C2=O.[Na+] [Compound 29, Sodium 1-amino-4-(4-(hydroxymethyl)phenylamino)-9,10-dioxo-9,10-dihydroanthracene-2-sulfonate]	-3	-4	> 300		-4	5	
Nc1c(S(=O)(=O)[O-])cc(Nc2cccc(Sc3ccccc3)c2)c2c1C(=O)c1ccccc1C2=O.[Na+] [Compound 41, Sodium 1-amino-4-(3-(phenylsulfanyl)phenylamino)-9,10-dioxo-9,10-dihydroanthracene-2-sulfonate]	10	1	> 300	984 ± 327	6		
